Measured values published in US12643906B2, “Fused aza-heterocyclic amide compound and use thereof” (CSPC ZHONGQI PHARMACEUTICAL TECHNOLOGY (SHIJIAZHUANG) CO., …, priority 2020, dated 2026).
Read-outs that look alike come from different tables or passages of the source.

Legend:
Ba/F3 LMNA-NTRK1-G667C = biological target: T1, Ba/F3 LMNA-NTRK1-G667C (Homo sapiens, UniProt P04629, G667C, cells depend on it); assay: In vitro cell proliferation inhibition (MTT); assay type: cell-based, murine; conditions: 72 h, read-out: IC50 Ba/F3 LMNA-NTRK1-G667C
T1 construct: fused on or other part: P02545 (Prelamin-A/C)
Method: (§1) Cells in the logarithmic growth phase were harvested and counted using a […]. The cell suspension with a certain density was pipetted uniformly and seeded into a 96-well plate with each well of 100 μL, and shaken to make the cells uniformly disperse into the wells. 100 μL of compound solution with certain concentration gradient was added into each well, and 3 duplicate wells were set for each concentration. The plate was cultured in a CO2 incubator at 37° C. for 72 h. 20 μL of MTT working solution (5 mg/mL) was added into each well, and the plate was placed at 37° C. for 4 h, and centrifuged at 1000 rpm for 5 min by a plate centrifuge. After 180 μL of culture medium was discarded, the plate was added with 150 μL of DMSO, and mixed well with a microplate shaker, the plate bottom was wiped, and optical density (OD) at 550 nm was detected with a microplate reader.

Ba/F3 LMNA-NTRK1-G595R = biological target: T2, Ba/F3 LMNA-NTRK1-G595R (Homo sapiens, UniProt P04629, G595R, cells depend on it); assay: In vitro cell proliferation inhibition (MTT); assay type: cell-based, murine; conditions: 72 h, read-out: IC50 Ba/F3 LMNA-NTRK1-G595R
T2 construct: fused on or other part: P02545 (Prelamin-A/C)
Method: as §1

Ba/F3 ETV6-NTRK2 = biological target: T3, Ba/F3 ETV6-NTRK2 (Homo sapiens, UniProt Q16620); assay: In vitro cell proliferation inhibition (MTT); assay type: cell-based, murine; conditions: 72 h, read-out: IC50 Ba/F3 ETV6-NTRK2
T3 construct: fused on or other part: P41212 (Transcription factor ETV6)
Method: as §1

Ba/F3 ETV6-NTRK3-G623R = biological target: T4, Ba/F3 ETV6-NTRK3-G623R (Homo sapiens, UniProt Q16288, G623R, cells depend on it); assay: In vitro cell proliferation inhibition (MTT); assay type: cell-based, murine; conditions: 72 h, read-out: IC50 Ba/F3 ETV6-NTRK3-G623R
T4 construct: fused on or other part: P41212 (Transcription factor ETV6)
Method: as §1

Ba/F3 LMNA-NTRK1 = biological target: T5, Ba/F3 LMNA-NTRK1 (Homo sapiens, UniProt P04629); assay: In vitro cell proliferation inhibition (MTT); assay type: cell-based, murine; conditions: 72 h, read-out: IC50 Ba/F3 LMNA-NTRK1
T5 construct: fused on or other part: P02545 (Prelamin-A/C)
Method: as §1

TRKA(G595R) = biological target: T6, TRKA(G595R) (Homo sapiens, UniProt P04629, G595R); assay: HTRF kinase inhibition assay, TRKA(G595R); assay type: biochemical
T6 construct: purchased signalchem
Method: (§2) The compound to be tested with a certain concentration gradient and an enzyme solution were successively added into a plate (kinase buffer (1× kinase buffer (Cisbio, Cat #62EZBFDD), pH 7.5; 5 mM MgCl2, 1 mM DTT) was added into negative control wells), and the compound plate was centrifuged at 1000 rpm for 30 seconds. The plate was sealed and incubated in a Constant Temperature Incubator at 25° C. for 30 min. A substrate solution containing TK-Sub-biotin (Cisbio, Cat #61TKOBL) and ATP (Sigma, Cat #R0441) was prepared, the substrate solution was added into a 384-well plate, and the plate was centrifuged at 1000 rpm for 30 seconds. The plate was sealed and incubated in a Constant Temperature Incubator at 25° C. for 60 min.
(§3) TK antibody and XL665 were diluted, mixed and added into the assay plate, and the plate was centrifuged at 1000 rpm for 30 seconds. The plate was sealed and incubated in a Constant Temperature incubator Incubator at 25° C. for 60 min. The assay plate was placed on an Envision reader for reading. (HTRF 665/615 ratio: signal value at 665 nm/signal value at 615 nm) Inhibition=(rationegative control well−ratiocompound well)/(rationegative control well−ratioenzyme-free control well)×100% 1.3 Data Analysis and Curve Fitting
(§4) Data were fitted in XLFit excel add-in version 5.4.0.8 to obtain IC50 values.

TRKB = biological target: T7, TRKB (Homo sapiens, UniProt Q16620); assay: HTRF kinase inhibition assay, TRKB; assay type: biochemical
T7 construct: purchased Bioduro
Method: as §2
TK antibody and XL665 were diluted, mixed and added into the assay plate, and the plate was centrifuged at 1000 rpm for 30 seconds. The plate was sealed and incubated in a Constant Temperature incubator Incubator at 25° C. for 60 min. The assay plate was placed on an Envision reader for reading.
as §4

[1] = tested on: Ba/F3 LMNA-NTRK1-G667C model; conditions: 100 mg/kg, gavage
Method: (§5) The cells in the logarithmic growth phase were collected and re-suspending in serum-free culture medium to make the cell concentration at […] cells/mL. The cell suspension was added with equal volume of Matrigel to make the final cell concentration at 3×10^7-5×10^7 cells/mL. The animal model was established by subcutaneously inoculating 0.1 mL of tumor cell suspension in the axilla of the forelimb of NuNu mice (female, 4-6 weeks, Beijing Vital River Laboratory Animal Technology Co., Ltd.) in an amount of 3×10^6-5×10^6 cells/mouse.
(§6) The maximum and the minimum tumor diameters of the xenografts in nude mice were measured using a vernier caliper, and the tumor volume (TV) was calculated according to the formula: V=½×a×b^2, where a and b represent the maximum and minimum diameters of the tumor mass, respectively. Nude mice with appropriate tumor volume were selected and the mice were evenly divided into 7 groups of 6 mice (100-200 mm^3) by tumor volume using a random number method.
(§7) Tumor diameters were measured twice weekly and tumor volume was calculated. […] (where Ti represents the mean tumor volume of a certain administration group on a certain day; TO represents the mean tumor volume of the administration group at the start of administration, Vi represents the mean tumor volume of the vehicle control group on a certain day (same day as Ti) and V0 represents the mean tumor volume of the vehicle control group at the start of administration); • Tumor inhibition rate: at the end of the test, the animals were executed by removing the cervical vertebrae.

[2] = tested on: Ba/F3 LMNA-NTRK1-G595R model; conditions: gavage
Method: as §5, §6, §7

TRKC(G623R) = biological target: T8, TRKC(G623R) (Homo sapiens, UniProt Q16288, G623R); assay: HTRF kinase inhibition assay, TRKC(G623R); assay type: biochemical
T8 construct: purchased Bioduro
Method: as §2, §3, §4

O=C(Nc1ccc(N2CCN(C(=O)CO)CC2)cc1)c1cnn2ccc(N3C[C@@H](F)C[C@@H]3c3cc(F)ccc3F)nc12 [Compound 4, 5-((2R,4S)-2-(2,5-difluorophenyl)-4-fluoropyrrolidin-1-yl)-N-(4-(4-(2-hydroxyacetyl)piperazin-1-yl)phenyl)pyrazolo[1,5-a]pyrimidine-3-carboxamide]
GI50 (Ba/F3 LMNA-NTRK1-G667C): 2.21 nM
GI50 (Ba/F3 LMNA-NTRK1-G595R): 0.166 nM
GI50 (Ba/F3 ETV6-NTRK2): 1.77 nM
GI50 (Ba/F3 ETV6-NTRK3-G623R): 0.674 nM
GI50 (Ba/F3 LMNA-NTRK1): 0.729 nM
IC50 (TRKA(G595R)): < 0.169 nM
IC50 (TRKB): 0.986 nM
Number of animals (Survival/total) [1]: (6/6)
Rate of weight gain (%) [1]: 8.16%
TGI (%) [1]: 84.0%
Tumor volume (mm^3) [1]: 197.5 ± 85.4 mm^3
Tumor weight [1]: 0.21 ± 0.08 g
Tumor weight inhibition rate (%) [1]: 61.17%
Number of animals (Survival/total) ([2]; 50 mg/kg): (6/6)
Rate of weight gain (%) ([2]; 50 mg/kg): 10.66%
TGI (%) ([2]; 50 mg/kg): 136.9%
Tumor volume (mm^3) ([2]; 50 mg/kg): 15.7 ± 12.6 mm^3
Tumor weight ([2]; 50 mg/kg): 0.02 ± 0.01 g
Tumor weight inhibition rate (%) ([2]; 50 mg/kg): 96.16%
Number of animals (Survival/total) ([2]; 100 mg/kg): (6/6)
Rate of weight gain (%) ([2]; 100 mg/kg): 8.32%
TGI (%) ([2]; 100 mg/kg): 138.0%
Tumor volume (mm^3) ([2]; 100 mg/kg): 11.3 ± 9.7 mm^3
Tumor weight ([2]; 100 mg/kg): 0.02 ± 0.01 g
Tumor weight inhibition rate (%) ([2]; 100 mg/kg): 96.83%
IC50 (TRKC(G623R)): 0.205 nM
